Test results reported in US8173606B2, “Sulfated oligosaccharide derivatives” (Progen Pharmaceuticals Limited, priority 2004, dated 2012).
Marks after values point to notes of the source that are not given here.

Key:
[1] = target: FGF-1 (Homo sapiens, UniProt P05230); assay: SPR based solution affinity assay, growth factor binding (FGF-1); conditions: heparin-coated sensorchip, HBS-EP buffer, 25° C.; read-out: Kd aFGF
Description: (§1) Binding affinities of ligands for the growth factors FGF-1, FGF-2 and VEGF were measured using a surface plasmon resonance (SPR) based solution affinity assay. The principle of the assay is that heparin immobilised on a sensorchip surface distinguishes between free and bound growth factor in an equilibrated solution of the growth factor and a ligand. Upon injection of the solution, the free growth factor binds to the immobilised heparin, is detected as an increase in the SPR response and its concentration thus determined. A decrease in the free growth factor concentration as a function of the ligand concentration allows for the calculation of the dissociation constant, Kd. It is important to note that ligand binding to the growth factors can only be detected when the interaction involves the HS binding site, thus eliminating the chance of evaluating non-specific binding to other sites on the protein. A 1:1 stoichiometry has been assumed for all protein:ligand interactions.
(§2) For the testing of growth factor binding activity, heparin-coated sensorchips were used. Their preparation, via immobilisation of biotinylated BSA-heparin on a streptavidin-coated sensorchip, has been described.[5] Heparin has also been immobilised via aldehyde coupling using either adipic acid dihydrazide or 1,4-diaminobutane. […] Ligands binding to FGF-1 and VEGF were measured in HBS-EP buffer (10 mM HEPES, pH 7.4, 150 mM NaCl, 3.0 mM EDTA and 0.005% (v/v) polysorbate 20), while binding to FGF-2 was measured in HBS-EP buffer containing 0.3 M NaCl.[5] […] For each assay mixture, 50-200 μL of solution was injected at 5-40 μL/min and the relative binding response measured. […]
(§3) Sensorgram data were analysed using the BIAevaluation software (BIAcore). […]
(§4) [formula] and the binding equation[5] can be expressed as
(§5) The Kd values given are the values fit, using the binding equation, to a plot of [P] versus [L]total. Where Kd values were measured in duplicate, the values represent the average of the duplicate measurements. […]

[2] = target: T1, VEGF (Homo sapiens, UniProt P15692); assay: SPR based solution affinity assay, growth factor binding (VEGF); conditions: heparin-coated sensorchip, HBS-EP buffer, 25° C.
T1 sequence (P15692 27-191 isoform P15692-4): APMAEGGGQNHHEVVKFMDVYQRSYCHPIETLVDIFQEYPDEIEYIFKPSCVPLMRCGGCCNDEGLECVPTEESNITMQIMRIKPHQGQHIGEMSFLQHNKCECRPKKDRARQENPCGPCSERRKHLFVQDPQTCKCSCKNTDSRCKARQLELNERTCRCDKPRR
Description: as §1, §2, §3, §4, §5

[3] = target: FGF-2 (Homo sapiens, UniProt P09038); assay: SPR based solution affinity assay, growth factor binding (FGF-2); conditions: heparin-coated sensorchip, HBS-EP buffer containing 0.3 M NaCl, 25° C.; read-out: Kd bFGF
Chain of FGF-2 (P09038 143-288, species assumed): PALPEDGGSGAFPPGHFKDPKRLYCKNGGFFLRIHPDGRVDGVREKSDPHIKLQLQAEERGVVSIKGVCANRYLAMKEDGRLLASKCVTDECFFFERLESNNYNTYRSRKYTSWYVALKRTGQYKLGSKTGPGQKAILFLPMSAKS
Description: as §1, §2, §3, §4, §5

[4] = target: T2, heparanase (Homo sapiens, UniProt Q9Y251); assay: Heparanase inhibition, Microcon ultrafiltration assay; format: biochemical; conditions: 3H labelled HS, pH 5.0, 22° C., 2.5 h
T2 sequence (Q9Y251 158-543 limits assumed): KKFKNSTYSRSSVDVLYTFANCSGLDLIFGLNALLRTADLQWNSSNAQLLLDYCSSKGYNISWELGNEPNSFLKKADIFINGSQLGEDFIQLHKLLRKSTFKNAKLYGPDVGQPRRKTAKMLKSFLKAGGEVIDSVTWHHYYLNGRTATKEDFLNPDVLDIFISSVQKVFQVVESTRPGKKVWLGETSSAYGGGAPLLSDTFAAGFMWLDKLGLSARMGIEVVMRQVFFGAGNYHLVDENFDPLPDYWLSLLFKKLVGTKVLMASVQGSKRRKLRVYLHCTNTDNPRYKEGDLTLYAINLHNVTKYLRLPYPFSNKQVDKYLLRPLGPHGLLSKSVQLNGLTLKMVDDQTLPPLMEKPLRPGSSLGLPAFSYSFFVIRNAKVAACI
T2 sequence (Q9Y251 36-109 limits assumed): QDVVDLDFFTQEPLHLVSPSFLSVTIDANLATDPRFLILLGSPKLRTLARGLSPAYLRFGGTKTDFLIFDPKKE
Description: The heparanase assays were performed using a Microcon ultrafiltration assay. The assays rely on the principle of physically separating heparan sulfate (HS) that has been digested by heparanase from native HS to determine heparanase activity. The assay uses ultrafiltration devices (Microcon YM-10) to separate the smaller heparanase-cleaved HS fragments from native HS.
A reaction was set up with a volume of 90 μL, • 40 mM acetate buffer (pH 5.0) • 0.1 mg/mL BSA • 90 ng heparanase • 2.5 μM ^3H labelled HS • various concentrations of inhibitors.
The reactions were set up with all components except the ^3H labelled HS and allowed to equilibrate for 10 min at 22° C. The assays were then initiated by adding the HS and immediately 20 μL was taken, mixed with 80 μL of 10 mM phosphate (pH 7.0) and the 100 μL transferred to a Microcon YM-10 concentrator which was then centrifuged at approximately 14000 g for 5 min. The solution that passed through the membrane (filtrate) was retained. This sample was considered the time=0 sample. The assays (now 70 μL in volume) were allowed to react at 22° C. for 2.5 h and then the filtration step was repeated for three aliquots of 20 μL from each assay.
The time=0 filtrate and the three 2.5 h filtrate samples were counted for ^3H. The difference between the time=0 and the averaged 2.5 h samples gave the amount of heparanase activity. All inhibition assays were run with a heparanase standard assay which was identical to the assay composition above except no inhibitor was present and the amount of heparanase inhibition in the other assays determined by comparison with this standard.

[5] = Pharmacokinetic studies of 35S-labelled compounds after iv administration; conditions: rat; for Urinary Recovery: urine collected 0-48 h
Description: The polyol precursors for PG500, 501, 503, 504, 506 and PI-88 (2 mg of each) were desiccated under vacuum over P2O5 for 3 days. Into each vial was syringed 50 μL of a stock solution of 1.77 mg (2.0 mCi) of ^35SO3.pyridine complex and 2 mg SO3.Me3N in 300 μL of anhydrous DMF (Aldrich, redried over freshly ignited 3 A molecular sieves). A further 600 μL of anhydrous DMF was added to the SO3 vial and was distributed to each sample vial. The samples were heated to 60° for 66 hr. SO3.Me3N (14 mg in 300 μL anhydrous DMF) was added to each vessel and the resulting solutions were heated to 60° overnight. The vials were cooled to room temperature and stored at −80° C. awaiting purification.
Each sample was quenched by addition of Na2CO3 (sat. aqu. adjusted to pH 8-9), evaporated to dryness and subjected to SEC (Biogel P2, 2.6×90 cm, flow rate 30 mL/hr, 5 min/fraction). Fractions containing desired material were detected using a G-M counter and DMB test followed by CE.
Male Sprague Dawley rats (250-350 g) were used. The animals were allowed free access to food and water before and during the experiments, during which they were maintained unrestrained in metabolism cages. Rats were anaesthetized with isoflurane (Forthane®). A catheter was inserted in the external jugular vein via an incision in the neck, and was passed under the skin to a second incision in the skin of the back (midline vicinity of the scapulae). This was then exteriorized with the protection of a light metal spring. The incision was closed and the spring fixed to the skin with Michel sutures so that the rats had full range of movement. The animals were carefully monitored during recovery (1-4 h).
All doses were administered as a bolus intravenous injection of 2.5 mg/kg in a dose volume of 2 mL/kg. The total amount of radioactivity administered to each rat was 0.5-10 μCi. The dose level used in this study is 10-fold lower than the no-effect dose previously established for acute toxicity of PI-88. Blood samples (˜250 μL) were collected predose and at 5, 15, 30, 45 min, and 1, 1.5, 2, 4, 8, 12, 24, 36 and 48 h after dosing. The blood samples were immediately centrifuged and the plasma collected. At completion of the experiments, the animals were killed by a lethal overdose of IV pentobarbitone anaesthetic (Nembutal®). Urine was collected from each animal at intervals of 0-12 h, 12-24 h and 24-48 h after dosing. Cage washings (˜15 mL of deionised water) were also collected. At the end of the experiment, bladder contents were aspirated from each animal and added to the 24-48 h voidings. Feces were collected over the same time intervals as the urine.
Aliquots of plasma (100 μL), urine and cage washings (500 μL) were transferred directly to 6 mL polypropylene scintillation vials for determination of radioactivity. Feces collected during each time period (from one animal dosed with each compound) were weighed and homogenised in 4 volumes of deionised water using a mechanical homogeniser. Approximately 1 g (accurately weighed) of this slurry was transferred to a 20 mL glass scintillation vial, 2 mL of tissue solubiliser added and the vials capped and incubated at 60° C. for at least 24 h. Radioactivity was measured following mixing of samples with Packard Ultima Gold liquid scintillation counting cocktail (2.0 mL for plasma and dose, 5.0 mL for urine and cage washings, 10 mL for feces). Counting was conducted on a Packard Tr-Carb liquid scintillation counter. Any result less than three times the background was considered less than the lower limit of quantitation not used in calculations. Plasma, urine and cage washings were counted in triplicate within 5 days of collection and were not corrected for radiochemical decay. Feces were processed as a batch at the completion of the study and the counts from these samples were corrected for radiochemical decay.

[6] = tested on: herpes simplex virus (HSV-1) KOS321 strain; assay: Antiviral assay, HSV-1 infectivity (plaque forming units); format: cell-based; conditions: African green monkey kidney cells; virus pre-incubated with compound 10 min
From the text: (§6) In panel A, the results are expressed as a percentage of the number of viral plaque forming units (PFU) formed in cells infected with the compound-treated virions relative to mock-treated controls. In panel B, the results are expressed as a percentage of the average area of 20 viral plaques formed in the continuous presence of compound relative to mock-treated control cells. Monolayer cultures of African green monkey kidney cells[35] and herpes simplex virus (HSV-1) KOS321 strain[36] were used throughout. The antiviral assays on the compounds were performed as described by Nyberg et al.[13] Briefly, the effects of the compounds on the infection of cells by exogenously added virus were tested by mixing serial fivefold dilutions of compound (at 0.032-20 μM) with approximately 200 plaque forming units of the virus. Following incubation of the virus and compound for 10 min at room temperature, the mixture was added to the cells and left on the cell monolayer for 2 h at 37° C. Subsequently, the inoculum was aspirated and replaced with an overlay medium of 1% methylcellulose solution in Eagle's minimum essential medium (EMEM). The viral plaques that developed after incubation of cells for 3 days at 37° C. were stained with 1% crystal violet solution and counted. The effects of the compounds on cell-to-cell spread of HSV-1 were tested by adding serial fivefold dilutions of compound (at 0.032-20 μM) in the serum-free overlay medium to cells after their infection with HSV-1. After incubation of the compound with the cells for 3 days at 37° C., the images of 20 plaques were captured and subjected to area determination using IM500 software (Leica).

[7] = tested on: herpes simplex virus (HSV-1) KOS321 strain; assay: Antiviral assay, HSV-1 cell-to-cell spread (plaque area); format: cell-based; conditions: African green monkey kidney cells; compound in overlay medium after infection, 3 days
From the text: as §6

[8] = iv bolus 2.5 mg/kg, plasma radioactivity

Chain of FGF-1 (P05230 whole entry, species assumed): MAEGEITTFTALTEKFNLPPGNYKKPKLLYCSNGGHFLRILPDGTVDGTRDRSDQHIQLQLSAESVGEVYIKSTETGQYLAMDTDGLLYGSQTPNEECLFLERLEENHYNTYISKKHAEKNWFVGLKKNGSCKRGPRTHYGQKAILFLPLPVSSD

Compound | Cl* (apparent) ([5]; iv bolus 2.5 mg/kg) | Vd* (apparent) ([5]; iv bolus 2.5 mg/kg) | k* (apparent) ([5]; iv bolus 2.5 mg/kg) | C0 [5, 8] | Urinary Recovery ([5]; iv bolus 2.5 mg/kg) | IC50 [7] | other results
[N-]=[N+]=NC1OC(COS(=O)(=O)O)C(OC2OC(COS(=O)(=O)O)C(OC3OC(COS(=O)(=O)O)C(OC4OC(COS(=O)(=O)O)C(OC5OC(COS(=O)(=O)O)C(OC6OC(COS(=O)(=O)O)C(OS(=O)(=O)O)C(OS(=O)(=O)O)C6OS(=O)(=O)O)C(OS(=O)(=O)O)C5OS(=O)(=O)O)C(OS(=O)(=O)O)C4OS(=O)(=O)O)C(OS(=O)(=O)O)C3OS(=O)(=O)O)C(OS(=O)(=O)O)C2OS(=O)(=O)O)C(OS(=O)(=O)O)C1OS(=O)(=O)O (stereo not drawn) [PG505] | – | – | – | – | – | – | Kd [1]: 1.96 ± 0.3 nM; Kd [2]: 4.8 ± 0.4 nM; Kd [3]: 137 ± 12 nM; IC50 [4]: 1040 ± 147 nM
PEG2000 Polysulfate [PG506] | 404 ± 59.5^ mL/h/kg | 44.5 ± 4.5^ mL | 1.17 ± 0.024^ h^−1 | 17.1 ± 1.8^ μg-eq/mL | 79.1 ± 3.6^ % dose | 7000 nM | AUC0-12 h, calculated over 0-8 h post dose interval only ([5]; iv bolus 2.5 mg/kg, 0-8 h post dose interval only): 6.2 ± 1.0^a μg-eq/h · mL; IC50 [6]: 10000 nM
PEG5000 Polysulfate [PG504] | 172 ± 11.8 mL/h/kg | 24.9 ± 2.9 mL | 0.247 ± 0.003 h⁻¹ | 30.5 ± 2.3 μg-eq/mL | 66.5 ± 9.4 % dose | 11000 nM | AUC0-12 h [5, 8]: 14.7 ± 1.2 μg-eq/h · mL
PI-88 [reference compound] | – | – | – | – | – | – | AUC0-12 h ([5]; in vivo, iv, 2.5 mg/kg): 9.6 ± 1.9 μg-eq/h · mL; C0 ([5]; in vivo, iv, 2.5 mg/kg): 17.7 ± 2.23 μg-eq/mL; Cl* (apparent) ([5]; in vivo, iv, 2.5 mg/kg): 250 ± 27.6 mL/h/kg; Vd* (apparent) ([5]; in vivo, iv, 2.5 mg/kg): 43.1 ± 1.9 mL; t1/2* (apparent) ([5]; in vivo, iv, 2.5 mg/kg): 49.8 ± 5.4 min
